Test results as given in ChEMBL document CHEMBL4342418, “1,2,3-Triazole-containing hybrids as potential anticancer agents: Current developments, action mechanisms and structure-activity relationships” (Eur J Med Chem, 2019).
Blank lines part the entries; values can stand above or below the compound they belong to.

Legend:
HepG2 [1] = assay: Antiproliferative activity against human HepG2 cells; type: functional, cell-based
HeLa = assay: Antiproliferative activity against human HeLa cells; type: functional, cell-based
A549 = assay: Antiproliferative activity against human A549 cells; type: functional, cell-based
MDA-MB-231 [2] = assay: cells; details: Homo sapiens
Description: Antiproliferative activity against human MDA-MB-231 cells assessed as reduction in cell viability preincubated for 24 hrs under hypoxia condition further incubated for 72 hrs under normaxic condition by MTT assay

MDA-MB-231 [3] = assay: cells; details: Homo sapiens, MDA-MB-231, 96 h
Description: Antiproliferative activity against human MDA-MB-231 cells assessed as reduction in cell viability incubated for 96 hrs under normaxic condition by MTT assay

SW-620 = assay: cells; type: functional, cell-based; details: Homo sapiens, SW-620, 48 h
Description: Antiproliferative activity against human SW620 cells assessed as reduction in cell viability after 48 hrs by MTT assay

ASPC1 = assay: cells; type: functional, cell-based; details: Homo sapiens, ASPC1, 48 h
Description: Antiproliferative activity against human Aspc-1 cells assessed as reduction in cell viability after 48 hrs by MTT assay

NCI-H23 = assay: cells; type: functional, cell-based; details: Homo sapiens, NCI-H23, 48 h
Description: Antiproliferative activity against human NCI-H23 cells assessed as reduction in cell viability after 48 hrs by MTT assay

PC-3 [4] = assay: cells; type: functional, cell-based; details: Homo sapiens, PC-3, 48 h
Description: Antiproliferative activity against human PC3 cells assessed as reduction in cell viability after 48 hrs by MTT assay

Erythrocyte = assay: Cytotoxicity against human RBC cells assessed as reduction in cell viability after 24 hrs by MTT assay; type: cell-based
HCT-116 [5] = assay: Antiproliferative activity against human HCT116 cells assessed as reduction in cell viability after 24 hrs by MTT assay; type: functional, cell-based; details: HCT-116, 24 h
PBMC = assay: Cytotoxicity against human PBMC cells assessed as reduction in cell viability after 24 hrs by MTT assay; type: cell-based
HepG2 [6] = assay: Antiproliferative activity against human HepG2 cells assessed as reduction in cell viability after 24 hrs by MTT assay; type: functional, cell-based; details: HepG2, 24 h
PC-3 [7] = assay: Antiproliferative activity against human PC3 cells assessed as reduction in cell viability after 24 hrs by MTT assay; type: functional, cell-based; details: PC-3, 24 h
[8] = Cytotoxicity against human HEK cells assessed as reduction in cell viability after 24 hrs by MTT assay; type: cell-based; details: HEK293, 24 h
MCF7 [9] = assay: Antiproliferative activity against human MCF7 cells assessed as reduction in cell viability after 24 hrs by MTT assay; type: functional, cell-based; details: MCF7, 24 h
[10] = Antiproliferative activity against human GBM95 cells assessed as reduction in cell viability after 72 hrs by MTT assay; type: functional, cell-based
[11] = Antiproliferative activity against human GBM2 cells assessed as reduction in cell viability after 72 hrs by MTT assay; type: functional, cell-based; details: GBM2, 72 h
[12] = Potency index, ratio of temozolomide IC50 to test compound IC50 for antiproliferative activity against human GBM95 cells; type: functional
[13] = Potency index, ratio of temozolomide IC50 to test compound IC50 for antiproliferative activity against human GBM2 cells; type: functional
K562 = assay: Antiproliferative activity against human K562 cells by MTT assay; type: functional, cell-based
HepG2 [14] = assay: Antiproliferative activity against human HepG2 cells by MTT assay; type: functional, cell-based
LoVo = assay: Antiproliferative activity against human LoVo cells by MTT assay; type: functional, cell-based
MCF7 [15] = assay: cells; type: functional, cell-based; details: Homo sapiens
Description: Antiproliferative activity against human MCF7 cells by MTT assay

HCT-116 [16] = assay: Antiproliferative activity against human HCT116 cells by MTT assay; type: functional, cell-based
SK-N-SH [17] = assay: Potency index, ratio of 5-Fluorouracil IC50 to test compound IC50 for antiproliferative activity against human SK-N-SH cells by MTT assay; type: functional
HepG2 [18] = assay: Potency index, ratio of 5-Fluorouracil IC50 to test compound IC50 for antiproliferative activity against human HepG2 cells by MTT assay; type: functional
MGC-803 [19] = assay: Potency index, ratio of 5-Fluorouracil IC50 to test compound IC50 for antiproliferative activity against human MGC803 cells by MTT assay; type: functional
MGC-803 [20] = assay: Antiproliferative activity against human MGC803 cells by MTT assay; type: functional, cell-based
SK-N-SH [21] = assay: Antiproliferative activity against human SK-N-SH cells by MTT assay; type: functional, cell-based
SK-OV-3 = assay: Antiproliferative activity against human SKOV3 cells by SRB assay; type: functional, cell-based
OVCAR-3 = assay: Antiproliferative activity against human OVCAR3 cells by SRB assay; type: functional
Caov-3 cell line = assay: Antiproliferative activity against human Caov3 cells by SRB assay; type: functional

SMILES: CCCCCCc1ccc(-c2cn(Cc3cc(=O)oc4cc(O)ccc34)nn2)cc1
IC50 (HepG2 [1]): 8.73 to 9.16 µM | IC50 (HeLa): 8.73 to 9.16 µM | IC50 (A549): 8.73 to 9.16 µM

SMILES: COc1ccc(NC(=O)c2ccc(-n3cc(COc4cc(=O)oc5ccccc45)nn3)cc2)cc1OC
IC50 (MDA-MB-231 [2]): 0.03 µM | IC50 (MDA-MB-231 [3]): 1.34 µM

SMILES: Cc1ccc2c(c1)/C(=N\O)C(=O)N2Cc1cn(CCCC(=O)NO)nn1
IC50 (SW-620): 0.49 to 0.76 µM | IC50 (ASPC1): 0.49 to 0.76 µM | IC50 (NCI-H23): 0.49 to 0.76 µM | IC50 (PC-3 [4]): 0.49 to 0.76 µM

SMILES: C#Cc1cccc(Nc2ncnc3cc(OCCOC)c(OCCOC)cc23)c1 [ERLOTINIB]
IC50 (Erythrocyte): 16.2 µM | IC50 (HCT-116 [5]): 11.6 to 26.9 µM | IC50 (PBMC): 20.5 µM | IC50 (HepG2 [6]): 11.6 to 26.9 µM | IC50 (PC-3 [7]): 11.6 to 26.9 µM | IC50 [8]: 29.5 µM | IC50 (MCF7 [9]): 11.6 to 26.9 µM

SMILES: O=Cc1ccccc1-n1cc(COc2cccc(OCc3cn(-c4ccccc4C=O)nn3)c2)nn1
IC50 [10]: 38.2 µM | IC50 [11]: 30.3 µM | Ratio IC50 [12]: 16.3 | Ratio IC50 [13]: 37.3

SMILES: COc1cc(O)c2c(=O)cc(-c3ccc(OCc4cn(-c5ccccc5F)nn4)cc3)oc2c1
GI50 (SK-OV-3): 10 to 20 µM | GI50 (OVCAR-3): 10 to 20 µM | GI50 (Caov-3 cell line): 10 to 20 µM

Further lines, with some results ahead:

IC50 (SW-620): 1.4 to 2.62 µM | IC50 (ASPC1): 1.4 to 2.62 µM | IC50 (NCI-H23): 1.4 to 2.62 µM | IC50 (PC-3 [4]): 1.4 to 2.62 µM
SMILES: COc1ccc2c(c1)/C(=N\O)C(=O)N2Cc1cn(Cc2ccc(C(=O)NO)cc2)nn1

IC50 (K562): 3.57 to 6.21 µM | IC50 (HepG2 [14]): 3.57 to 6.21 µM | IC50 (LoVo): 3.57 to 6.21 µM | IC50 (MCF7 [15]): 3.57 to 6.21 µM | IC50 (HCT-116 [16]): 3.57 to 6.21 µM
SMILES: COc1ccc2[nH]cc(Cn3cc(COc4ccc(/C=C/C(=O)NO)cc4OC)nn3)c2c1

IC50 (HepG2 [14]): 1.53 to 2.73 µM | IC50 (MGC-803 [20]): 1.53 to 2.73 µM | IC50 (SK-N-SH [21]): 1.53 to 2.73 µM
SMILES: COc1cccc(Cn2cc(CNc3ccc(C(=O)/C=C/c4cccnc4)cc3)nn2)c1
Ratio IC50 (SK-N-SH [17]): 2.6 - 6.7 | Ratio IC50 (HepG2 [18]): 2.6 - 6.7 | Ratio IC50 (MGC-803 [19]): 2.6 - 6.7
